This note sets out measurements from paper PMC8286840, “Identifying SARS-CoV-2 antiviral compounds by screening for small molecule inhibitors of Nsp3 papain-like protease” (Biochemical Journal, 2021).

Counter-ions that a name gives are not always drawn. Like-named read-outs stand apart in the source and are kept apart here. Where a SMILES comes first, the peptide text is derived from it. [ ]: non-standard residue; d: D form. Dolaproine = CO[C@@H]([C@@H]1CCCN1)[C@@H](C)C(=O)O; Dil = CC[C@H](C)[C@H](NC)[C@@H](CC(=O)O)OC; NMeV = CN[C@H](C(=O)O)C(C)C

Assay [1] concerns the target T1, SARS-CoV-2 PLpro (nsp3 1564–1878) (Severe acute respiratory syndrome coronavirus 2, UniProt P0DTD1). Briefly: biochemical. Conditions: high concentration screen, read-out: % of control remaining. Further details: FRET-quenched peptide (Pro3) cleavage by PLpro, 10 min pre-incubation, slope over 20 min, normalised to no-compound control.
In assay [2] the target is T1, SARS-CoV-2 PLpro (nsp3 1564–1878). Briefly: biochemical. On the set-up: FRET-quenched peptide (Pro3) cleavage by PLpro, 10 min pre-incubation, slope over 20 min, normalised to no-compound control. Particulars: low concentration screen, read-out: % of control remaining.

Consider `CC(C)(C)[C@]1(O)CCN2C[C@H]3c4ccccc4CCc4cccc(c43)[C@@H]2C1` (racemic), for which the remaining activity at 3.75 µM in assay [1] (Well no.=135) stood at 102%. Besides, the remaining activity at 1.25 µM in assay [2] (Well no.=135) came to 101%.
On to `Nc1cccc2c1CN(C1CCC(=O)NC1=O)C2=O` (stereo not shown) [Lenalidomide (Revlimid)], for which the remaining activity at 3.75 µM in assay [1] (Well no.=4838) amounted to 97.8%. Besides, the remaining activity at 1.25 µM in assay [2] (Well no.=4838) stood at 97.7%.
Take `NC(=O)[C@@H]1CCCC[C@@H]1C(=O)Nc1ccc(Cl)c(Cl)c1` [Lu AF21934]: the remaining activity at 3.75 µM in assay [1] (Well no.=8529) turned out to be 104%. In assay [2] (Well no.=8529), the remaining activity at 1.25 µM came out at 104%.
For the compound `COCC(=O)O[C@]1(CCN(C)CCCc2nc3ccccc3[nH]2)CCc2cc(F)ccc2[C@@H]1C(C)C` [Mibefradil dihydrochloride], the remaining activity at 3.75 µM in assay [1] (Well no.=882) came to 91.3%. Further, the remaining activity at 1.25 µM in assay [2] (Well no.=882) was 99.7%.
Turning to `CS(=O)(=O)c1cccc(CNc2nc(Nc3ccc4c(c3)CCC(=O)N4)ncc2C(F)(F)F)c1` [PF 573228], the remaining activity at 3.75 µM in assay [1] (Well no.=4712) amounted to 101%. In addition, the remaining activity at 1.25 µM in assay [2] (Well no.=4712) is 96.1%.
With `C[C@]12CCC(=O)C=C1[C@@H]1C[C@@H]1[C@H]1[C@@H]3[C@@H]4C[C@@H]4[C@@]4(CCC(=O)O4)[C@@]3(C)CC[C@@H]12` [Drospirenone], the remaining activity at 3.75 µM in assay [1] (Well no.=5235) turned out to be 102%. The remaining activity at 1.25 µM in assay [2] (Well no.=5235) was 99.4%.
On to `CC(=O)[C@H]1CC[C@H]2[C@@H]3CC=C4C[C@@H](O)CC[C@]4(C)[C@H]3CC[C@]12C` [Pregnenolone], for which the remaining activity at 3.75 µM was 103% in assay [1] (Well no.=2151), 102% in assay [1] (Well no.=6277) and 106% in assay [1] (Well no.=6919). The remaining activity at 1.25 µM in assay [2] (Well no.=2151) is 103%; in assay [2] (Well no.=6277), 106%; in assay [2] (Well no.=6919), 108%.
`CC[C@H](C)[C@@H]([C@@H](CC(=O)N1CCC[C@H]1[C@H](OC)[C@@H](C)C(=O)N[C@@H](Cc1ccccc1)C(=O)O)OC)N(C)C(=O)[C@@H](NC(=O)[C@@H](NC)C(C)C)C(C)C` [MMAF (Hydrochloride)] (H-[NMeV]V[Dil][Dolaproine]F-OH): the remaining activity at 3.75 µM in assay [1] (Well no.=7650) is 89.5%. For the same compound, the remaining activity at 1.25 µM in assay [2] (Well no.=7650) stood at 89.6%.
As for `O=c1[nH]cnc2c1ncn2[C@H]1C[C@H](O)[C@@H](CO)O1` [2'-Deoxyinosine], the remaining activity at 3.75 µM came to 105% in assay [1] (Well no.=7497) and 96.3% in assay [1] (Well no.=7712). Besides, the remaining activity at 1.25 µM in assay [2] (Well no.=7497) came to 106%; in assay [2] (Well no.=7712), 95%.
Regarding `O=Cc1ccc(O)cc1` [p-Hydroxybenzaldehyde], in assay [1] (Well no.=6531), the remaining activity at 3.75 µM was 103%. The remaining activity at 1.25 µM in assay [2] (Well no.=6531) came out at 103%.
As for `COc1cc2c(cc1OC)[C@@]13CC[N+]4([O-])CC5=CCO[C@H]6CC(=O)N2[C@H]1[C@H]6[C@H]5C[C@@H]34` (stereo partly shown) [Brucine-N-oxide], the remaining activity at 3.75 µM in assay [1] (Well no.=3270) came out at 102%. Further, the remaining activity at 1.25 µM in assay [2] (Well no.=3270) was 99.2%.
Take `Cc1ccc2c(c1)[C@]13CCCC[C@@H]1[C@H](C2)N(C)CC3` [Dimemorfan (phosphate)]: the remaining activity at 3.75 µM in assay [1] (Well no.=8523) stood at 103%. Further, in assay [2] (Well no.=8523), the remaining activity at 1.25 µM was found to be 106%.
Regarding `CCN1C[C@H](C)n2c(c(O)c3c(=O)n(Cc4ccc(F)c(Cl)c4)nc(C(=O)NC)c32)C1=O` [MK-2048], the remaining activity at 3.75 µM in assay [1] (Well no.=4731) was 104%. For the same compound, the remaining activity at 1.25 µM in assay [2] (Well no.=4731) amounted to 107%.
Take `CSC(=N)NCCC[C@H](N)C(=O)O` [S-Methyl-L-thiocitrulline acetate]: in assay [1] (Well no.=1024), the remaining activity at 3.75 µM worked out at 101%. For the same compound, the remaining activity at 1.25 µM in assay [2] (Well no.=1024) came to 101%.
Consider `CC(C)(C)[C@@H]1NC(=O)O[C@@H]2CCC[C@H]2OC/C=C/C(F)(F)c2nc3ccccc3nc2O[C@@H]2C[C@@H](C(=O)N[C@]3(C(=O)NS(=O)(=O)C4(C)CC4)C[C@H]3C(F)F)N(C2)C1=O` [Glecaprevir], for which, in assay [1] (Well no.=8512), the remaining activity at 3.75 µM was 93.8%. The remaining activity at 1.25 µM in assay [2] (Well no.=8512) is 103%.
For the compound `CC(=O)N[C@@H](CC(C)C)C(=O)N[C@@H](CC(C)C)C(=O)N[C@H](C=O)CCCN=C(N)N` [Leupeptin Hemisulfate], the remaining activity at 3.75 µM in assay [1] (Well no.=8716) is 91%. Besides, in assay [2] (Well no.=8716), the remaining activity at 1.25 µM worked out at 92%.
Turning to `C[N+](C)(C)CCOP(=O)(O)OP(=O)([O-])OC[C@H]1O[C@@H](n2ccc(N)nc2=O)[C@H](O)[C@@H]1O` [Citicoline], in assay [1] (Well no.=8931), the remaining activity at 3.75 µM stood at 88.7%. In addition, in assay [2] (Well no.=8931), the remaining activity at 1.25 µM turned out to be 89%.
On to `NC(N)=Nc1ccc2[nH]c3c(c2c1)C[C@@]1(O)[C@H]2Cc4ccc(O)c5c4[C@@]1(CCN2CC1CC1)[C@H]3O5` [Guanidinyl-naltrindole di-trifluoroacetate], for which the remaining activity at 3.75 µM in assay [1] (Well no.=763) was found to be 99.9%. The remaining activity at 1.25 µM in assay [2] (Well no.=763) was 96%.
With `O=C(O)/C(S)=C/c1ccc(I)cc1` [PD 150606], in assay [1] (Well no.=5432), the remaining activity at 3.75 µM was 97.7%. Besides, the remaining activity at 1.25 µM in assay [2] (Well no.=5432) came to 93.8%.
Turning to `CCCCN(CCCC)CC(O)c1cc(Cl)cc2c1-c1ccc(Cl)cc1/C2=C/c1ccc(Cl)cc1` (stereo not shown) [Lumefantrine], the remaining activity at 3.75 µM in assay [1] (Well no.=5499) stood at 108%. In addition, the remaining activity at 1.25 µM in assay [2] (Well no.=5499) amounted to 102%.
Consider `C/C=C(/C)C(=O)O[C@H]1CC[C@@]2(C)[C@@H]3CC[C@H]4[C@]5(O)C[C@H](O)[C@@]6(O)[C@@H](CN7C[C@@H](C)CC[C@H]7[C@@]6(C)O)[C@]5(O)C[C@@]42O[C@]13O` [Cevadine], for which the remaining activity at 3.75 µM in assay [1] (Well no.=3139) was found to be 102%. In assay [2] (Well no.=3139), the remaining activity at 1.25 µM is 103%.
For `Cc1ncc(CNC(=O)N(CCCl)N=O)c(N)n1` [Nimustine hydrochloride], the remaining activity at 3.75 µM in assay [1] (Well no.=861) was determined as 97.2%. In addition, the remaining activity at 1.25 µM in assay [2] (Well no.=861) turned out to be 96.9%.
As to `NC1(c2ccc(-c3nc4ccn5c(=O)[nH]nc5c4cc3-c3ccccc3)cc2)CCC1` [MK-2206 2HCl], the remaining activity at 3.75 µM in assay [1] (Well no.=4625) came out at 102%. In addition, the remaining activity at 1.25 µM in assay [2] (Well no.=4625) is 102%.
Consider `CC(C)(C)NCC(O)c1ccc(O)c(CO)c1` (stereo not shown) [Salbutamol (hemisulfate)], for which, in assay [1] (Well no.=7577), the remaining activity at 3.75 µM amounted to 96.7%. Also, the remaining activity at 1.25 µM in assay [2] (Well no.=7577) came out at 95.6%.
For `COc1cc(Nc2ncc3ccn(-c4cccc(CCC#N)c4)c3n2)cc(OC)c1OC` [Keratinocyte Differentiation Inducer], the remaining activity at 3.75 µM in assay [1] (Well no.=2379) was 103%. For the same compound, the remaining activity at 1.25 µM in assay [2] (Well no.=2379) amounted to 101%.
Take `CC(C)CN(C[C@@H](O)[C@H](Cc1ccccc1)NC(=O)O[C@H]1CO[C@H]2OCC[C@H]21)S(=O)(=O)c1ccc(N)cc1` [Darunavir Ethanolate]: the remaining activity at 3.75 µM in assay [1] (Well no.=8284) worked out at 94.1%. The remaining activity at 1.25 µM in assay [2] (Well no.=8284) came to 90.9%.
Take `O=[N+]([O-])c1cccc2cn[nH]c12` [7-Nitroindazole]: the remaining activity at 3.75 µM in assay [1] (Well no.=955) was found to be 100%. Moreover, the remaining activity at 1.25 µM in assay [2] (Well no.=955) is 107%.
As to `Clc1ccc(N2CCN(Cc3c[nH]c4ncccc34)CC2)cc1` [L-745,870 hydrochloride], in assay [1] (Well no.=1108), the remaining activity at 3.75 µM is 95.9%. Further, the remaining activity at 1.25 µM in assay [2] (Well no.=1108) is 92.3%.
Consider `Nc1nonc1C(=Nc1ccc(F)c(Br)c1)NO` [IDO-IN-1], for which the remaining activity at 3.75 µM in assay [1] (Well no.=8359) was 99.9%. Further, in assay [2] (Well no.=8359), the remaining activity at 1.25 µM was found to be 99.2%.
